Bounds are passed on as bounds.

As usually defined, the ED50 is the midpoint of the dose-response relation.

Assay [1] has as its system adenosine diphosphate induced platelet aggregation. Briefly: Inhibition of Platelet Aggregation-In Vitro, adenosine diphosphate induced. In kind it is cell-based, human. Details: key: (-): Inhibition; (+): No Inhibition. The text has this:
(§1) It is well known that platelet aggregation inhibitors may be useful as anti-thrombotic drugs. Inhibition of platelet aggregation can be conveniently measured in vitro by monitoring changes in optical density and/or light transmission in platelet rich plasma upon addition of suitable aggregating agents such as adenosine diphosphate, epinephrine, thrombin or collagen. Alternatively, platelet aggregation can be measured in vitro using platelet rich plasma obtained at various time intervales from animals given inhibitors by an oral or parenteral route.
(§2) Human […] is incubated with modified Tyrode's solution in a proportion of 40-50% human […]. The test compounds are added at varying concentrations and after 5 minutes incubation, an aggregating agent such as adenosine diphosphate or collagen is added. The change in optical density (light transmission) is monitored by eye and inhibition is recorded as a (-) or lack of inhibition is recorded as a (+). Test compounds are considered active if they inhibit adenosine diphosphate or collagen induced aggregation at a concentration of 25 mcg/ml or less within 5-10 minutes.

In assay [2] the test system is collagen induced platelet aggregation. Briefly: Inhibition of Platelet Aggregation-In Vitro, collagen induced. Details: key: (-): Inhibition; (+): No Inhibition. The assay is classed as cell-based, human.
Source text: as §1, §2

The subject of assay [3] is mean arterial blood pressure. Description: Hypotensive Activity in anesthetized rats. In kind it is in vivo, Male Wistar strain rats. The following applies: dose 2.1 mg/kg, intravenous (jugular) infusion over one minute, 4 animals, urethane anesthesia. How it is done:
This procedure is a modification of the technique described by Pike, et al., Prostaglandins, Nobel Symposium 2, Stockholm, June, 1966, pg. 165.
Male Wistar strain rats (Royal Hart Farms) averaging approximately 250 g in weight are fastened to rat boards in a supine position by means of canvas vests and limb ties. The animals are anesthetized with a 900 mg/kg intraperitoneal dose of urethane. The left carotid artery is cannulated with polyethylene 50 tubing to measure arterial blood pressure and the left external jugular vein is cannulated with polyethylene 50 tubing for drug infusion. The animals are allowed to equilibrate for 15-30 minutes. The test compound is infused in 0.5 ml of saline, over a one minute period, at the indicated dose level, using a Harvard model 940 infusion pump and a 6 cc syringe at speed 5. Each drug dose is flushed with 0.4 ml of saline. The mean arterial blood pressure is measured before and after drug administration using a Statham model P23Db pressure transducer and a Brush model 260 recorder. The percent depression in mean arterial blood pressure and the duration of at least a 10% depression induced by representative compounds of this invention are recorded in Table C.

The subject of assay [4] is bronchospasms elicited by 5-hydroxytryptamine. Description: Bronchodilator Activity (Konzett procedure), 5-hydroxytryptamine. In kind it is in vivo, guinea pigs. The note with it: Cavia porcellus; three logarithmic cumulative intravenous doses. Here is the method: (§3) Bronchodilator activity is determined in guinea pigs against bronchospasms elicited by intravenous injections of 5-hydroxytryptamine, histamine or acetylcholine by the Konzett procedure. [See J. Lulling, P. Lievens, F. El Sayed and J. Prignot, Arzeneimittel-Forschung, 18, 995 (1968).] In Table D, bronchodilator activity for representative compounds of this invention against one or more of the three spasmogenic agents is expressed as an ED50 determined from the results obtained with three logarithmic cumulative intravenous doses.

Assay [5] relates to bronchospasms elicited by histamine. Briefly: Bronchodilator Activity (Konzett procedure), histamine. The following applies: Cavia porcellus; three logarithmic cumulative intravenous doses. The assay is classed as in vivo, guinea pigs. How it is done: as §3
Assay [6] relates to bronchospasms elicited by acetylcholine. Description: Bronchodilator Activity (Konzett procedure), acetylcholine. In kind it is in vivo, guinea pigs. The following applies: Cavia porcellus; three logarithmic cumulative intravenous doses. How it is done: as §3

For `O=C(O)CCC/C=C\C[C@@H]1[C@@H](/C=C/C2(O)CCCCC2)[C@H](O)C[C@@H]1O` (relative stereo) [nat(and ent)-9α,11α,15-Trihydroxy-15,16-tetramethylene-17,18,19,20-tetranor-13-trans-5-cis-prostadienoic Acid], the “Inhibition of Platelet Aggregation, Adenosine Diphosphate” value was “(+)” in assay [1] (drug concentration 0.25 ug/ml), “(+)” in assay [1] (drug concentration 2.5 ug/ml), “(+)” in assay [1] (drug concentration 25 ug/ml) and “(-)” in assay [1] (drug concentration 250 ug/ml). In addition, the “Inhibition of Platelet Aggregation, Collagen” value is given as “(+)” in assay [2] (drug concentration 0.25 ug/ml), “(+)” in assay [2] (drug concentration 2.5 ug/ml), “(-)” in assay [2] (drug concentration 25 ug/ml) and “(-)” in assay [2] (drug concentration 250 ug/ml).
With `O=C(O)CCCC=CCC1C(O)CC(=O)C1C=CC1(O)CCCCC1` (stereo not drawn) [nat(and ent)-9α,15-Dihydroxy-11-oxo-15,16-tetramethylene-17,18,19,20-tetranor-5-cis-13-trans-prostadienoic Acid], the “Inhibition of Platelet Aggregation, Adenosine Diphosphate” value in assay [1] (drug concentration 25 ug/ml) and in assay [1] (drug concentration 250 ug/ml) was “(-)” each time. Moreover, the “Inhibition of Platelet Aggregation, Collagen” value is “(+)” in assay [2] (drug concentration 0.25 ug/ml), “(-)” in assay [2] (drug concentration 2.5 ug/ml), “(-)” in assay [2] (drug concentration 25 ug/ml) and “(-)” in assay [2] (drug concentration 250 ug/ml). Moreover, in assay [3], the “Duration in Minutes of at Least 10% Depression” value is over 20 min. In assay [3], the “Percent Depression of Mean Arterial Blood Pressure” value was -29%. Besides, the ED50 is 0.253 µg/kg in assay [4], over 3.2 µg/kg in assay [5] and over 3.2 µg/kg in assay [6].

Source of the values: patent US4178456A, “Prostenoic acids and esters” (American Cyanamid Company, priority 1977, dated 1979).
